# Results published in ChEMBL document CHEMBL3286334, “Identification of tetrapeptides from a mixture based positional scanning library that can restore nM full agonist function of the L106P, I69T, I102S, A219V, C271Y, and C271R human melanocortin-4 polymorphic receptors (hMC4Rs)” (J Med Chem, 2014).
# Where a SMILES comes first, the peptide text is derived from it. [ ]: non-standard residue; d: D form. Phe(4-I) = N[C@@H](Cc1ccc(I)cc1)C(=O)O; dPhe(4-I) = N[C@H](Cc1ccc(I)cc1)C(=O)O; Tic = O=C(O)[C@@H]1Cc2ccccc2CN1; dTic = O=C(O)[C@H]1Cc2ccccc2CN1
# Assays:
# Format in all cases: functional, cell-based
# Melanocortin receptor 3 = Melanocortin receptor 3 (Mus musculus, UniProt P33033); experiment: Agonist activity at mouse melanocortin-3 receptor expressed in HEK293 cells co-transfected with CRE/beta-galactosidase reporter gene assessed as stimulatory response after 6 hrs
# Melanocortin receptor 4 [1] = target: Melanocortin receptor 4 (Homo sapiens, UniProt P32245); experiment: Agonist activity at wild type human melanocortin-4 receptor expressed in HEK293 cells co-transfected with CRE/beta-galactosidase reporter gene assessed as stimulatory response after 6 hrs
# Melanocortin receptor 4 [2] = target: Melanocortin receptor 4 (Homo sapiens, UniProt P32245, L106P); experiment: Agonist activity at human melanocortin-4 receptor L106P mutant expressed in HEK293 cells co-transfected with CRE/beta-galactosidase reporter gene assessed as stimulatory response after 6 hrs
# Melanocortin receptor 4 [3] = target: Melanocortin receptor 4 (Homo sapiens, UniProt P32245, I69T); experiment: Agonist activity at human melanocortin-4 receptor I69T mutant expressed in HEK293 cells co-transfected with CRE/beta-galactosidase reporter gene assessed as stimulatory response after 6 hrs
# Melanocortin receptor 4 [4] = target: Melanocortin receptor 4 (Homo sapiens, UniProt P32245, I102S); experiment: Agonist activity at human melanocortin-4 receptor I102S mutant expressed in HEK293 cells co-transfected with CRE/beta-galactosidase reporter gene assessed as stimulatory response after 6 hrs
# Melanocortin receptor 4 [5] = target: Melanocortin receptor 4 (Homo sapiens, UniProt P32245, A219V); experiment: Agonist activity at human melanocortin-4 receptor A219V mutant expressed in HEK293 cells co-transfected with CRE/beta-galactosidase reporter gene assessed as stimulatory response after 6 hrs
# Melanocortin receptor 4 [6] = target: Melanocortin receptor 4 (Homo sapiens, UniProt P32245, C271Y); experiment: Agonist activity at human melanocortin-4 receptor C271Y mutant expressed in HEK293 cells co-transfected with CRE/beta-galactosidase reporter gene assessed as stimulatory response after 6 hrs
# [7] = target: Melanocyte-stimulating hormone receptor (Mus musculus, UniProt Q01727); experiment: Agonist activity at mouse melanocortin-1 receptor expressed in HEK293 cells co-transfected with CRE/beta-galactosidase reporter gene assessed as stimulatory response after 6 hrs
# Melanocortin receptor 4 [8] = target: Melanocortin receptor 4 (Mus musculus, UniProt P56450); experiment: Agonist activity at mouse melanocortin-4 receptor expressed in HEK293 cells co-transfected with CRE/beta-galactosidase reporter gene assessed as stimulatory response after 6 hrs
# Melanocortin receptor 5 = Melanocortin receptor 5 (Mus musculus, UniProt P41149); experiment: Agonist activity at mouse melanocortin-5 receptor expressed in HEK293 cells co-transfected with CRE/beta-galactosidase reporter gene assessed as stimulatory response after 6 hrs
SMILES,EC50 (Melanocortin receptor 4 [1]) [nM],EC50 (Melanocortin receptor 4 [2]) [nM],also measured
CC(=O)N[C@@H](Cc1cnc[nH]1)C(=O)N[C@H](Cc1ccc(Cl)cc1)C(=O)N1Cc2ccccc2CC1C(=O)N[C@H](Cc1ccc([N+](=O)[O-])cc1)C(N)=O (stereo partly drawn),,,EC50 (Melanocortin receptor 3): 55 nM
CC(=O)N1Cc2ccccc2C[C@H]1C(=O)N[C@H](Cc1ccc(Cl)cc1)C(=O)N1Cc2ccccc2C[C@H]1C(=O)N[C@H](Cc1ccc([N+](=O)[O-])cc1)C(N)=O,9.6,310,
CC(=O)N[C@@H](Cc1cnc[nH]1)C(=O)N[C@H](Cc1ccc(I)cc1)C(=O)N1Cc2ccccc2CC1C(=O)N[C@H](Cc1ccc([N+](=O)[O-])cc1)C(N)=O (stereo partly drawn),,,EC50 (Melanocortin receptor 3): 35 nM
CC(=O)N[C@@H](Cc1c[nH]cn1)C(=O)N[C@H](Cc1ccc(Cl)cc1)C(=O)N[C@@H](CCCNC(=N)N)C(=O)N1Cc2ccccc2C[C@H]1C(N)=O,110,7780,
CC(=O)N[C@H](CCCNC(=N)N)C(=O)N[C@H](Cc1ccccc1)C(=O)N[C@@H](CCCNC(=N)N)C(=O)N[C@@H](Cc1c[nH]c2ccccc12)C(N)=O,40,1240,
CC(=O)N1Cc2ccccc2C[C@H]1C(=O)N[C@H](Cc1ccc(I)cc1)C(=O)N1Cc2ccccc2C[C@H]1C(=O)N[C@H](Cc1ccc([N+](=O)[O-])cc1)C(N)=O,5.1,280,
CC(=O)N[C@@H](Cc1ccc(O)cc1)C(=O)N[C@H](Cc1ccccc1)C(=O)N[C@@H](CCCNC(=N)N)C(=O)N[C@@H](Cc1c[nH]c2ccccc12)C(N)=O (Ac-Y[dF]RW-NH2),6.2,540,
CC(=O)N1Cc2ccccc2C[C@@H]1C(=O)N[C@H](Cc1ccccc1)C(=O)N[C@@H](CCCN=C(N)N)C(=O)N[C@@H](Cc1c[nH]c2ccccc12)C(N)=O (Ac-[dTic][dF]RW-NH2),297,17900,
CC(=O)N[C@@H](Cc1c[nH]c2ccccc12)C(=O)N[C@H](Cc1ccccc1)C(=O)N[C@@H](CCCN=C(N)N)C(=O)N[C@@H](Cc1c[nH]c2ccccc12)C(N)=O (Ac-W[dF]RW-NH2),32,170,
CC(=O)N[C@@H](Cc1cnc[nH]1)C(=O)N[C@H](Cc1ccccc1)C(=O)N[C@@H](CCCNC(=N)N)C(=O)N1Cc2ccccc2CC1C(N)=O (stereo partly drawn),> 10000,> 100000,
CC(=O)N[C@@H](Cc1cnc[nH]1)C(=O)N[C@H](Cc1ccccc1)C(=O)N[C@@H](CCCNC(=N)N)C(=O)N[C@@H](Cc1ccc([N+](=O)[O-])cc1)C(N)=O,195,23000,
CC(=O)N[C@@H](CCCNC(=N)N)C(=O)N[C@H](Cc1ccc(I)cc1)C(=O)N1Cc2ccccc2C[C@H]1C(=O)N[C@H](Cc1ccc([N+](=O)[O-])cc1)C(N)=O,0.26,2.6,EC50 (Melanocortin receptor 4 [3]): 4.1 nM; EC50 (Melanocortin receptor 4 [4]): 2.9 nM; EC50 (Melanocortin receptor 4 [5]): 6.1 nM; EC50 (Melanocortin receptor 4 [6]): 19700 nM; EC50 [7]: 2.7 nM; EC50 (Melanocortin receptor 4 [8]): 2.7 nM; EC50 (Melanocortin receptor 5): 1.1 nM
CC(=O)N1Cc2ccccc2C[C@H]1C(=O)N[C@H](Cc1ccccc1)C(=O)N[C@@H](CCCNC(=N)N)C(=O)N[C@@H](Cc1c[nH]c2ccccc12)C(N)=O (Ac-[Tic][dF]RW-NH2),,,EC50 (Melanocortin receptor 4 [1]; hek293): 15 nM; EC50 (Melanocortin receptor 4 [2]; hek293): 4940 nM
CC(=O)N1Cc2ccccc2C[C@H]1C(=O)N[C@H](Cc1ccc(Cl)cc1)C(=O)N[C@@H](CCCNC(=N)N)C(=O)N1Cc2ccccc2C[C@H]1C(N)=O,960,15500,
CC(=O)N[C@@H](Cc1c[nH]cn1)C(=O)N[C@H](Cc1ccccc1)C(=O)N1Cc2ccccc2C[C@H]1C(=O)N[C@@H](Cc1c[nH]c2ccccc12)C(N)=O,,,EC50 (Melanocortin receptor 4 [1]; hek293): 204 nM; EC50 (Melanocortin receptor 4 [2]; hek293): 18800 nM
CC(=O)N[C@@H](CCCNC(=N)N)C(=O)N[C@H](Cc1ccc(Cl)cc1)C(=O)N1Cc2ccccc2CC1C(=O)N[C@H](Cc1ccc([N+](=O)[O-])cc1)C(N)=O (stereo partly drawn),,,EC50 (Melanocortin receptor 3): 94 nM
CC(=O)N1Cc2ccccc2C[C@H]1C(=O)N[C@H](Cc1ccc(I)cc1)C(=O)N[C@@H](CCCNC(=N)N)C(=O)N1Cc2ccccc2C[C@H]1C(N)=O,280,2260,
CC(=O)N[C@@H](CCCNC(=N)N)C(=O)N[C@H](Cc1ccccc1)C(=O)N[C@@H](CCCNC(=N)N)C(=O)N[C@@H](Cc1c[nH]c2ccccc12)C(N)=O,1.06,124,
CC(=O)N[C@@H](Cc1c[nH]cn1)C(=O)N[C@H](Cc1ccc(I)cc1)C(=O)N[C@@H](CCCNC(=N)N)C(=O)N1Cc2ccccc2C[C@H]1C(N)=O (Ac-H[dPhe(4-I)]R[Tic]-NH2),89,6920,
CC(=O)N1Cc2ccccc2CC1C(=O)N[C@H](Cc1ccc(Cl)cc1)C(=O)N1Cc2ccccc2CC1C(=O)N[C@@H](Cc1ccc(I)cc1)C(N)=O (stereo partly drawn),120,2670,

SMILES,EC50 (Melanocortin receptor 4 [1]) [nM],EC50 (Melanocortin receptor 4 [2]) [nM],also measured
CC(=O)N[C@@H](CCCNC(=N)N)C(=O)N[C@H](Cc1ccc(Cl)cc1)C(=O)N1Cc2ccccc2CC1C(=O)N[C@@H](Cc1ccc(I)cc1)C(N)=O (stereo partly drawn),22,215,
CC(=O)N[C@@H](CCCNC(=N)N)C(=O)N[C@H](Cc1ccc(I)cc1)C(=O)N1Cc2ccccc2CC1C(=O)N[C@@H](Cc1ccc(I)cc1)C(N)=O (stereo partly drawn),203,2230,
CC(=O)N[C@@H](CCCNC(=N)N)C(=O)N[C@H](Cc1ccc(I)cc1)C(=O)N[C@@H](CCCNC(=N)N)C(=O)N[C@@H](Cc1ccc(I)cc1)C(N)=O,,4.4,EC50 (Melanocortin receptor 4 [4]): 3.5 nM; EC50 (Melanocortin receptor 4 [6]): > 100000 nM
CC(=O)N1Cc2ccccc2C[C@H]1C(=O)N[C@H](Cc1ccc(I)cc1)C(=O)N[C@@H](CCCNC(=N)N)C(=O)N[C@H](Cc1ccc([N+](=O)[O-])cc1)C(N)=O,20,657,
CC(=O)N1Cc2ccccc2C[C@H]1C(=O)N[C@H](Cc1ccc(Cl)cc1)C(=O)N[C@@H](CCCNC(=N)N)C(=O)N[C@H](Cc1ccc([N+](=O)[O-])cc1)C(N)=O,40,710,
CC(=O)N[C@@H](CCCNC(=N)N)C(=O)N[C@H](Cc1ccc(Cl)cc1)C(=O)N[C@@H](CCCNC(=N)N)C(=O)N[C@@H](Cc1ccc(I)cc1)C(N)=O,,13,EC50 (Melanocortin receptor 4 [6]): > 100000 nM
CC(=O)N1Cc2ccccc2CC1C(=O)N[C@H](Cc1ccc(I)cc1)C(=O)N[C@@H](CCCNC(=N)N)C(=O)N[C@@H](Cc1ccc(I)cc1)C(N)=O (stereo partly drawn),4.26,440,
CC(=O)N[C@@H](Cc1cnc[nH]1)C(=O)N[C@H](Cc1ccc(I)cc1)C(=O)N1Cc2ccccc2CC1C(=O)N[C@@H](Cc1ccc(I)cc1)C(N)=O (stereo partly drawn),7.42,570,
CC(=O)N[C@@H](Cc1cnc[nH]1)C(=O)N[C@H](Cc1ccc(Cl)cc1)C(=O)N1Cc2ccccc2CC1C(=O)N[C@@H](Cc1ccc(I)cc1)C(N)=O (stereo partly drawn),15,790,
CC(=O)N[C@@H](Cc1c[nH]cn1)C(=O)N[C@H](Cc1ccc(I)cc1)C(=O)N1Cc2ccccc2C[C@H]1C(=O)N1Cc2ccccc2C[C@H]1C(N)=O,24,3760,
CC(=O)N[C@@H](CCCNC(=N)N)C(=O)N[C@H](Cc1ccc(I)cc1)C(=O)N1Cc2ccccc2CC1C(=O)N[C@H](Cc1ccc([N+](=O)[O-])cc1)C(N)=O (stereo partly drawn),,,EC50 (Melanocortin receptor 3): 47 nM
CC(=O)N[C@@H](CCCNC(=N)N)C(=O)N[C@H](Cc1ccc(Cl)cc1)C(=O)N[C@@H](CCCNC(=N)N)C(=O)N1Cc2ccccc2C[C@H]1C(N)=O,110,2720,
CC(=O)N[C@@H](CCCNC(=N)N)C(=O)N[C@H](Cc1ccc(Cl)cc1)C(=O)N1Cc2ccccc2C[C@H]1C(=O)N1Cc2ccccc2C[C@H]1C(N)=O,250,2450,
CC(=O)N[C@@H](CCCNC(=N)N)C(=O)N[C@H](Cc1ccc(I)cc1)C(=O)N[C@@H](CCCNC(=N)N)C(=O)N1Cc2ccccc2C[C@H]1C(N)=O,57,3170,
CC(=O)N[C@@H](CCCNC(=N)N)C(=O)N[C@H](Cc1ccc(I)cc1)C(=O)N1Cc2ccccc2C[C@H]1C(=O)N1Cc2ccccc2C[C@H]1C(N)=O,2260,27500,
CC(=O)N[C@@H](Cc1cnc[nH]1)C(=O)N[C@H](Cc1ccc(I)cc1)C(=O)N[C@@H](CCCNC(=N)N)C(=O)N[C@@H](Cc1ccc(I)cc1)C(N)=O (Ac-H[dPhe(4-I)]R[Phe(4-I)]-NH2),,,EC50 (Melanocortin receptor 4 [6]): > 100000 nM; EC50 [7]: 12 nM
CC(=O)N[C@@H](Cc1cnc[nH]1)C(=O)N[C@H](Cc1ccccc1)C(=O)N[C@@H](CCCCN)C(=O)N[C@@H](Cc1c[nH]c2ccccc12)C(N)=O,40,6240,
CC(=O)N1Cc2ccccc2CC1C(=O)N[C@H](Cc1ccc(Cl)cc1)C(=O)N[C@@H](CCCNC(=N)N)C(=O)N[C@@H](Cc1ccc(I)cc1)C(N)=O (stereo partly drawn),2.6,380,
CC(=O)N[C@@H](Cc1c[nH]cn1)C(=O)N[C@H](Cc1ccc(Cl)cc1)C(=O)N1Cc2ccccc2C[C@H]1C(=O)N1Cc2ccccc2C[C@H]1C(N)=O,160,11400,
CC(=O)N[C@@H](Cc1cnc[nH]1)C(=O)N[C@H](Cc1ccc(Cl)cc1)C(=O)N[C@@H](CCCNC(=N)N)C(=O)N[C@@H](Cc1ccc(I)cc1)C(N)=O,,,EC50 [7]: 19 nM
